{"source": "patent US12168008B2", "about": "“Oxabicycloheptanes for modulation of immune response” (LIXTE BIOTECHNOLOGY, INC., priority 2016, dated 2024)", "key": {"CD4/8 effector cells": {"test_system": "CD4/8 effector cells", "assay": "T cell subsets in naive mice (FIG. 13-14)", "type": "in vivo, mouse", "protocol": "FIG. 13A. […] Low dose of LB treatment in vivo induced more CD8 (left) and CD4 (right) effector T cells in lymph node. 5 mice per group. Control—PBS, Low dose—0.16 mg/kg, Medium dose—0.32 mg/kg."}, "CD8+ or CD4+ T cells": {"test_system": "CD8+ or CD4+ T cells", "assay": "Human allogeneic mixed lymphocyte reaction, T cells with monocyte-derived dendritic cells (Example 8)", "type": "cell-based", "protocol": "The effect of LB-100 on T-cells was assessed in human allogeneic mixed lymphocyte reactions, in which CD8+ or CD4+ T cells were co-cultured with […] monocyte-derived dendritic cells. […] The effect of LB-100 plus anti-PD-1 antibody was investigated on CD4+ T cells in the same assay."}, "B16F10 cells": {"test_system": "B16F10 cells", "assay": "B16F10 melanoma tumor prevention model", "type": "in vivo, mouse", "details": "day 15 after tumor implantation", "protocol": "LB-100 and aPD-1 enhance anti-tumor activity in B16 melanoma without histologic evidence of autoimmunity: It was next determined whether LB-100/aPD-1 combination was effective against other aPD-1 resistant tumor. In a tumor prevention model, 6-8 weeks old C57BL/6 mice were randomized into four treatment groups: PBS, LB-100, aPD-1 and combination. B16F10 cells (2.5×10^5) were inoculated 2 days after initiation of treatment subcutaneously in the right thoracic flank. Treatments were administered every two days following survival (FIG. 34A). By day 15 after tumor implantation, there was no difference between control and the single agent arms.\nSyngeneic tumor models—Mice were maintained and experiments were conducted with the approval of the NINDS Animal Use and Care Committees. For CT26 tumors: BALB/c (6-8 wk old) were purchased from Charles River Laboratory. CT26 cells (0.5×10^6) were injected into the right flank subcutaneously. […] Treatments were given every 2 days for 30 days. […]"}, "[1]": {"test_system": "Primary human T cells and Jurkat T cells", "assay": "In vitro studies PP2A and CTLA4 (Example 2)", "type": "cell-based", "protocol": "Primary human T cells and Jurkat T cells are treated with LB-100 and T-cell activation levels measured. LB-100 increases activation of the T cells.\nPrimary human T cells and Jurkat T cells are treated with LB-100 and PP2A:CTLA-4 interaction is assessed. LB-100 decreases the interaction of PP2A and CTLA-4.\nPrimary human T cells and Jurkat T cells are treated with LB-100 and levels of PP2A phosphorylation are measured. LB-100 increases phosphorylation in the T cells."}, "mouse B16 melanoma": {"test_system": "mouse B16 melanoma", "assay": "B16 melanoma tumor-bearing mice (FIG. 12, 17-19)", "type": "in vivo", "protocol": "FIG. 12. […] Treatment was started on the same day of tumor implantation. Control—PBS, Low dose—0.16 mg/kg, Medium dose—0.32 mg/kg.\nFIG. 17A. CD8+CD44+ effector T cells are increased with PP2A inhibitor LB-100 treatment. Percentage of CD8+CD44+T effector cells population in tumor draining lymph node from B16 tumor bearing mice treated with LB-100 or PBS. 5 mice per group."}, "[2]": {"test_system": "tumor infiltrating lymphocytes", "assay": "Flow cytometry of tumor infiltrating lymphocytes, spleen and draining lymph node in CT26-bearing mice", "type": "in vivo, mouse", "protocol": "The treatment effect was assessed on tumor infiltrating lymphocytes (FIGS. 23A-B). CT26 tumor-bearing mice were treated with LB-100 and/or anti-PD-1 antibodies as above. After 12 days of treatment, tumors were analyzed by FACS. […] In addition, given the known importance of PP2A in Treg, the effect of LB-100 and/or anti-PD-1 treatment was examined on the amount of Tregs present in the tumor. […] This effect is similar in degree to the effect on Tregs depletion by anti-PD-1 or the combination.\nEnhanced activation of lymphocytes with combination treatment: To address the cellular mechanism mediating tumor rejection by the LB-100/aPD-1 combination, the status of the immune system in the secondary lymphoid organs and in the tumor were examined. Mice were implanted with CT26 tumors and treated with LB-100 and/or aPD-1 as described above. On day 3, after two treatments, the spleens, tumor draining lymph nodes (dLN) and tumors were harvested and analyzed by flow cytometry (FIG. 26-27). In the secondary lymphoid tissue, a greater activation of CD8+ T cells in mice treated with the combination regimen compared to controls was observed, as indicated by greater frequency of CD44+CD62L-CD8+ T cells (FIG. 26A-C). […] There was no difference in frequency of CD44+CD62L− subset in CD4+ T cells in both the spleen and dLN (FIGS. 28A and 29A). Immune check point markers, including expression of PD-1, CTLA4, TIM3 and Ox40 on CD8+ and CD4+ T cells were examined in the tumor draining lymph node and spleen (FIGS. 28 and 29).\nIsolation of TILs—Mice were injected in the right thoracic flank with 0.5×10^6 CT26 cells and treated as above after tumors reached between 50-100 mm^3. After 2 treatments, mice were sacrificed and tumors excised. Tumors were subjected to mechanical disruption using a GentleMACS Dissociator (Miltenyi Biotec) in presence of enzymatic digestion using Tumor Dissociation Kit (Miltenyi Biotec). […] Cells were analyzed by flow cytometry (LSRII; BD Bioscience). […]"}}, "data": [{"smiles": "CN1CCN(C(=O)C2C(C(=O)O)[C@H]3CC[C@@H]2O3)CC1", "note": "(stereo partly shown) [LB-100]", "values": [{"measurement": "PD-1 expressing CD8+ T cells in blood", "setting": "CD4/8 effector cells; low dose", "result": "reduced PD-1 expressing CD8+ T cells in blood"}, {"measurement": "CD4/8 effector cells in lymph node of naïve mice", "setting": "CD4/8 effector cells; low dose 0.16 mg/kg", "result": "increased CD4/8 effector cells"}, {"measurement": "PD-1 expressing CD8+ T cells in spleen", "setting": "CD4/8 effector cells; medium dose", "result": "reduced PD-1 expressing CD8+ T cells in spleen"}, {"measurement": "IFNγ secretion in CD4+ T cells", "setting": "CD8+ or CD4+ T cells", "result": "increase"}, {"measurement": "T cell proliferation in CD8+ and CD4+ cells", "setting": "CD8+ or CD4+ T cells", "result": "dose dependent increase"}, {"measurement": "Tbet in CD4+ T cells", "setting": "CD8+ or CD4+ T cells", "result": "dose dependent increase"}, {"measurement": "co-stimulatory molecule OX40 expression on T cells", "setting": "CD8+ or CD4+ T cells", "result": "dose dependent increase"}, {"measurement": "PD-1 expression on human CD4 T cells", "setting": "CD8+ or CD4+ T cells; co-cultured with monocytes derived DC", "result": "reduced PD-1 expression"}, {"measurement": "tumor size, single agent arms vs control", "setting": "B16F10 cells", "result": "no difference"}, {"measurement": "PP2A:CTLA-4 interaction", "setting": "[1]", "result": "decreases"}, {"measurement": "T-cell activation levels", "setting": "[1]", "result": "increases"}, {"measurement": "levels of PP2A phosphorylation in the T cells", "setting": "[1]", "result": "increases"}, {"measurement": "B16 melanoma tumor growth", "setting": "mouse B16 melanoma; every two days for 8 doses from day of implantation, 0.16 and 0.32 mg/kg", "result": "reduced mouse B16 melanoma tumor growth significantly"}, {"measurement": "CD8+CD44+ effector T cells in tumor draining lymph node", "setting": "mouse B16 melanoma; vs PBS, 5 mice per group", "result": "increased"}, {"measurement": "CD44+CD62L− CD4 effector T cells in lymph node", "setting": "mouse B16 melanoma; vs PBS, 5 mice per group", "result": "Increased"}, {"measurement": "CD44+CD62L− CD8 effector T cells in lymph node", "setting": "mouse B16 melanoma; vs PBS, 5 mice per group", "result": "Increased"}, {"measurement": "Tregs in the tumor", "setting": "[2]; after 12 days of treatment, control 14.7", "result": 2.1, "unit": "%"}, {"measurement": "CD44+CD62L-CD8+ T cells in the spleen", "setting": "[2]; day 3, after two treatments, control 13.0", "result": 16.6, "unit": "%"}, {"measurement": "PD-1 expression in CD4+ and CD8+ TILs", "setting": "[2]; mouse, in vivo", "result": "did not further alter PD-1 expression"}]}]}
